{
  "source": "patent US20240140895A1",
  "about": "“NOVEL AROMATIC MOLECULES” (XENIOPRO GmbH, priority 2018, published 2024)",
  "assay_type_in_all_cases": "cell-based",
  "key": {"[1]": {"test_system": "A-431 cells (human epidermoid squamous cell carcinoma cells)", "assay": "Proliferation assay (alamarBlue) with A-431 cells", "from_the_text": "(§1) The antiproliferative activities of compounds falling under formula (Ia), (Tb) and (Ic), respectively, were investigated on cells or cell lines originating from a disorder of the haematopoietic system, including the myeloid cell compartment and the lymphoid cell compartment (T-cells and B-cells), the neuroendocrine system, the cervix, the breast, the ovaries, the lung, the gastrointestinal tract, and the mucosal epithelium, as well as from the skin epithelium and from the muscle. To this end, HL-60 cells, NB-4 cells, HH cells, RPMI-8402 cells, TANOUE cells, TT cells, HeLa cells, MDA-MB-231 cells, FU-OV-1 cells, LOU-NH91 cells, 23132/87 cells, CAL-27 cells, BHY cells, SCC-25 cells, A-431 cells, human primary epidermal keratinocytes (HPEK), and C2C12 cells were seeded into 96-well plates suitable for fluorescence assays (CORNING #3598) at following initial cell numbers: 1000 cells per well for HL-60; 1000 cells per well for NB-4; 5000 cells per well for HH; 5000 cells per well for RPMI-8402; 1500 cells per well for TANOUE; 9000 cells per well for TT; 2000 cells per well for HeLa; 3000 cells per well for MDA-MB-231; 3000 cells per well for FU-OV-1; 4000 cells per well for LOU-NH91; 2000 cells per well for 23132/87; 2000 cells per well for CAL-27; 1500 cells per well for BHY; 1500 cells per well for SCC-25; 700 cells per well for A-431; 1000 cells per well for HPEK; 500 cells per well for C2-C12. The cells were treated with compounds at indicated final concentrations (diluted from the 1000× stock-solutions in DMSO to a final DMSO concentration of 0.1% v/v in H2O (Water For Injection, WFI, Fisherscientific #10378939)) or with the empty carrier DMSO at 0.1% v/v as control for 5 days. At day 5 after starting the treatments the cells were subjected to the alamarBlue® Proliferation Assay (Bio-Rad Serotec GmbH, BUF012B) according to the protocol of the manufacturer. The readout was taken with a multi-well plate-reader in the fluorescence mode with applying a filter for excitation at 560 nm (band width 10 nm) and for emission at 590 nm (band width 10 nm). Control treatments for growth inhibition with commercial compounds such as Methotrexate (MTREX) and Resveratrol (RES) were included on every plate. Some of the test compounds of the present invention were obtained and applied as their salts. According cases are indicated in the column “Specification” in Table 30 to Table 62 and by their sum formula in Table 63.\n(§2) The assays were performed in duplicate or more replicates of independent single experiments each containing a six-fold replicate for every condition. For every individual plate, the measured fluorescence intensity values of the conditions with compound treatment were normalized against the corresponding equally weighted arithmetic mean of the fluorescence intensity values of the six DMSO treated control wells in order to obtain the relative values to a baseline level of 1.0.\n(§3) Two independent outlier analyses were performed according to the methods by Peirce and Chauvenet (Ross, Journal of Engineering Technology 2003, 1-12). Outliers confirmed by at least one of the methods were excluded from the calculations but not more than one value out of six per compound within a single experiment. The weighted arithmetic mean (here abbreviated as AVEw) for each compound was calculated from the normalized values over all independent replicates of the single experiments comprising the six replicates each. The corresponding standard deviation for the weighted arithmetic mean was calculated according to the method described by Bronstein et al. (Bronstein, Semendjajew, Musiol, Muhlig, Taschenbuch der Mathematik, 5th edition 2001 (German), publisher: Verlag Harri Deutsch, Frankfurt am Main and Thun) and was combined with the Gauβ′ error propagation associated with the performed calculation for the normalization. The resulting standard deviation is herein referred to as “combined standard deviation”. […]"}, "[2]": {"test_system": "RPMI-8402 cells (human T cell acute lymphoblastic leukemia cells)", "assay": "Proliferation assay (alamarBlue) with RPMI-8402 cells", "from_the_text": "as §1, §2, §3"}, "[3]": {"test_system": "TANOUE cells (human B cell leukemia cells)", "assay": "Proliferation assay (alamarBlue) with TANOUE cells", "from_the_text": "as §1, §2, §3"}, "[4]": {"test_system": "MDA-MB-231 cells (human breast carcinoma cells)", "assay": "Proliferation assay (alamarBlue) with MDA-MB-231 cells", "from_the_text": "as §1, §2, §3"}, "[5]": {"test_system": "HL-60 cells (human acute myeloid leukemia cells)", "assay": "Proliferation assay (alamarBlue) with HL-60 cells", "from_the_text": "as §1, §2, §3"}, "[6]": {"test_system": "NB-4 cells (human acute promyelocytic leukemia cells)", "assay": "Proliferation assay (alamarBlue) with NB-4 cells", "from_the_text": "as §1, §2, §3"}, "[7]": {"test_system": "SCC-25 cells (human tongue squamous cell carcinoma cells)", "assay": "Proliferation assay (alamarBlue) with SCC-25 cells", "from_the_text": "as §1, §2, §3"}, "[8]": {"test_system": "23132/87 cells (human gastric adenocarcinoma cells)", "assay": "Proliferation assay (alamarBlue) with 23132/87 cells", "details": "read-out: Activity Range: weighted arithmetic mean (AVEw) of normalized fluorescence intensity relative to DMSO basis level 1.0", "from_the_text": "as §1, §2, §3"}, "[9]": {"test_system": "BHY cells (human oral squamous cell carcinoma cells)", "assay": "Proliferation assay (alamarBlue) with BHY cells", "details": "read-out: Activity Range: weighted arithmetic mean (AVEw) of normalized fluorescence intensity relative to DMSO basis level 1.0", "from_the_text": "as §1, §2, §3"}, "[10]": {"test_system": "TT cells (human medullary thyroid carcinoma cells)", "assay": "Proliferation assay (alamarBlue) with TT cells", "from_the_text": "The antiproliferative activities of compounds falling under formula (Ia), (Tb) and (Ic), respectively, were investigated on cells or cell lines originating from a disorder of the haematopoietic system, including the myeloid cell compartment and the lymphoid cell compartment (T-cells and B-cells), the neuroendocrine system, the cervix, the breast, the ovaries, the lung, the gastrointestinal tract, and the mucosal epithelium, as well as from the skin epithelium and from the muscle. To this end, HL-60 cells, NB-4 cells, HH cells, RPMI-8402 cells, TANOUE cells, TT cells, HeLa cells, MDA-MB-231 cells, FU-OV-1 cells, LOU-NH91 cells, 23132/87 cells, CAL-27 cells, BHY cells, SCC-25 cells, A-431 cells, human primary epidermal keratinocytes (HPEK), and C2C12 cells were seeded into 96-well plates suitable for fluorescence assays (CORNING #3598) at following initial cell numbers: 1000 cells per well for HL-60; 1000 cells per well for NB-4; 5000 cells per well for HH; 5000 cells per well for RPMI-8402; 1500 cells per well for TANOUE; 9000 cells per well for TT; 2000 cells per well for HeLa; 3000 cells per well for MDA-MB-231; 3000 cells per well for FU-OV-1; 4000 cells per well for LOU-NH91; 2000 cells per well for 23132/87; 2000 cells per well for CAL-27; 1500 cells per well for BHY; 1500 cells per well for SCC-25; 700 cells per well for A-431; 1000 cells per well for HPEK; 500 cells per well for C2-C12. […] The readout was taken with a multi-well plate-reader in the fluorescence mode with applying a filter for excitation at 560 nm (band width 10 nm) and for emission at 590 nm (band width 10 nm). […]\nas §2, with “1.0. […]” for “1.0.”"}, "[11]": {"test_system": "HH cells (human cutaneous T-cell lymphoma cells)", "assay": "Proliferation assay (alamarBlue) with HH cells", "details": "Table 34, compound at 20 μM, read-out: Activity Range (AVEw, weighted arithmetic mean of normalized fluorescence intensity, DMSO = 1.0)", "from_the_text": "as §1, §2, §3"}, "[12]": {"test_system": "C2C12 cells (murine myoblast cells)", "assay": "Proliferation assay (alamarBlue) with C2C12 cells", "details": "Mus musculus, compound at 20 μM, read-out: Activity Range: weighted arithmetic mean (AVEw) of normalized fluorescence intensity, relative to DMSO basis level 1.0", "from_the_text": "as §1, §2, §3"}, "[13]": {"details": "Homo sapiens, read-out: Activity Range: weighted arithmetic mean (AVEw) of normalized fluorescence intensity relative to DMSO basis level 1.0"}},
  "data": [
    {"smiles": "Oc1ccc(C=Cc2cc(O)cc(O)c2)cc1", "note": "[RES, resveratrol, reference compound]", "values": [
      {"measurement": "activity at 20 µM", "setting": "[1]; Homo sapiens, 20 μM, read-out: Activity Range: weighted arithmetic mean (AVEw) of normalized fluorescence intensity relative to DMSO basis level 1.0", "result": 60, "unit": "%"},
      {"measurement": "Activity Range: weighted arithmetic mean (AVEw) of normalized fluorescence intensity relative to DMSO basis level 1.0", "setting": "[1]; compound at 20 μM", "result": "0.6 ± 0.0"},
      {"measurement": "Activity Range: weighted arithmetic mean (AVEw) of normalized fluorescence intensity relative to DMSO basis level 1.0", "setting": "[1]; control at 40 μM", "result": "0.2 ± 0.0"},
      {"measurement": "Activity Range: weighted arithmetic mean (AVEw) of normalized fluorescence intensity relative to DMSO basis level 1.0", "setting": "[2]; 20 μM", "result": "0.6 ± 0.0"},
      {"measurement": "activity at 20 µM", "setting": "[2]; [13]", "result": 60, "unit": "%"},
      {"measurement": "Activity Range: weighted arithmetic mean (AVEw) of normalized fluorescence intensity relative to DMSO basis level 1.0", "setting": "[3]; 20 μM", "result": "0.1 ± 0.0"},
      {"measurement": "activity at 20 µM", "setting": "[3]; Homo sapiens, B-cell, read-out: Activity Range: weighted arithmetic mean (AVEw) of normalized fluorescence intensity relative to DMSO basis level 1.0", "result": 10, "unit": "%"},
      {"measurement": "Activity Range: weighted arithmetic mean (AVEw) of normalized fluorescence intensity relative to DMSO basis level 1.0", "setting": "[4]; 20 μM", "result": "0.6 ± 0.0"},
      {"measurement": "activity at 20 µM", "setting": "[4]; [13]", "result": 60, "unit": "%"},
      {"measurement": "activity at 20 µM", "setting": "[5]; Homo sapiens, Table 30, compound at 20 μM, read-out: Activity Range (AVEw, weighted arithmetic mean of normalized fluorescence intensity, DMSO = 1.0)", "result": "40 ± 10", "unit": "%"},
      {"measurement": "Activity Range (AVEw, weighted arithmetic mean of normalized fluorescence intensity, DMSO = 1.0)", "setting": "[5]; Table 31, compound at 20 μM", "result": "0.4 ± 0.1"},
      {"measurement": "activity at 20 µM", "setting": "[6]; Homo sapiens, Table 32, compound at 20 μM, read-out: Activity Range (AVEw, weighted arithmetic mean of normalized fluorescence intensity, DMSO = 1.0)", "result": 10, "unit": "%"},
      {"measurement": "Activity Range (AVEw, weighted arithmetic mean of normalized fluorescence intensity, DMSO = 1.0)", "setting": "[6]; Table 33, compound at 20 μM", "result": "0.1 ± 0.0"},
      {"measurement": "Activity Range: weighted arithmetic mean (AVEw) of normalized fluorescence intensity relative to DMSO basis level 1.0", "setting": "[7]; 20 μM", "result": "0.4 ± 0.1"},
      {"measurement": "activity at 20 µM", "setting": "[7]; [13]", "result": "40 ± 10", "unit": "%"},
      {"measurement": "activity at 20 µM", "setting": "[8]", "result": "50 ± 10", "unit": "%"},
      {"measurement": "activity at 20 µM", "setting": "[9]", "result": "50 ± 10", "unit": "%"},
      {"measurement": "Activity Range: weighted arithmetic mean (AVEw) of normalized fluorescence intensity relative to DMSO basis level 1.0", "setting": "[10]; compound at 20 μM", "result": "0.9 ± 0.0"},
      {"measurement": "Activity Range: weighted arithmetic mean (AVEw) of normalized fluorescence intensity relative to DMSO basis level 1.0", "setting": "[10]; control at 40 μM", "result": "0.7 ± 0.0"},
      {"measurement": "activity at 20 µM", "setting": "[11]", "result": "60 ± 10", "unit": "%"},
      {"measurement": "activity at 20 µM", "setting": "[12]", "result": 80, "unit": "%"}
    ]}
  ]
}
